The values below come from patent US20240150377A1, “MODULATORS OF CYSTIC FIBROSIS TRANSMEMBRANE CONDUCTANCE REGULATOR” (VERTEX PHARMACEUTICALS INCORPORATED, priority 2020, published 2024).

Like-named read-outs stand apart in the source and are kept apart here.

The assay addresses T1, CFTR (Homo sapiens, UniProt P13569, DEL508-508).
T1 construct: endogenous in cells; host or cells: primary human bronchial epithelial cells from CF subjects (F508del/MF-HBE), differentiated at air-liquid interface
The assay is described as follows: HBE assay: Ussing chamber assay of CFTR-mediated short-circuit currents. The format is cell-based. To be noted: for EC50: read-out: HBE EC50. As to the method: 1. Ussing Chamber Assay of CFTR-Mediated Short-Circuit Currents
Ussing chamber experiments were performed using human bronchial epithelial (HBE) cells derived from CF subjects heterozygous for F508del and a minimal function CFTR mutation (F508del/MF-HBE) and cultured as previously described (Neuberger T, Burton B, Clark H, Van Goor F Methods Mol Biol 2011:741:39-54). After four days the apical media was removed, and the cells were grown at an air liquid interface for >14 days prior to use.
(§1) To isolate the CFTR-mediated short-circuit (ISC) current, F508del/MF-HBE grown on Costar® Snapwell™ cell culture inserts were mounted in an Ussing chamber and the transepithelial ISC was measured under voltage-clamp recording conditions (Vhold=0 mV) at 37° C. The basolateral solution contained (in mM) 145 NaCl, 0.83 K2HPO4, 3.3 KH2PO4, 1.2 MgCl2, 1.2 CaCl2), 10 Glucose, 10 HEPES (pH adjusted to 7.4 with NaOH) and the apical solution contained (in mM) 145 NaGluconate, 1.2 MgCl2, 1.2 CaCl2), 10 glucose, 10 HEPES (pH adjusted to 7.4 with NaOH) and 30 μM amiloride to block the epithelial sodium channel. Forskolin (20 μM) was added to the apical surface to activate CFTR, followed by apical addition of a CFTR inhibitor cocktail consisting of BPO, GlyH-101, and CFTR inhibitor 172 (each at 20 μM final assay concentration) to specifically isolate CFTR currents. The CFTR-mediated ISC (μA/cm^2) for each condition was determined from the peak forskolin response to the steady-state current following inhibition.
2. Identification of Corrector Compounds
The activity of the CFTR corrector compounds on the CFTR-mediated ISC was determined in Ussing chamber studies as described above. The F508del/MF-HBE cell cultures were either incubated with the corrector compounds at a range of concentrations in combination with 1 μM Ivacaftor or were incubated with the corrector compounds at a single fixed concentration of 10 μM in combination with 1 μM Ivacaftor for 18-24 hours at 37° C. and in the presence of 20% human serum. The concentration of corrector compounds with 1 μM Ivacaftor during the 18-24 hours incubations was kept constant throughout the Ussing chamber measurement of the CFTR-mediated ISC to ensure compounds were present throughout the entire experiment.
Ussing Chamber Assay of CFTR-mediated short-circuit currents
Ussing chamber experiments were performed using human bronchial epithelial (HIBE) cells derived from CF subjects heterozygous for F508del and a minimal function CFTR mutation (F508del/MIF-HIBE) and cultured as previously described (Neuberger T, Burton B, Clark H, Van Goor F Methods Mol Biol 2011:741:39-54). After four days the apical media was removed, and the cells were grown at an air liquid interface for >14 days prior to use.
as §1, with “KH2PO4,” for “K2HPO4,”
Identification of Corrector Compounds

Where [1] appears, read: Table 13, read-out: HBE Max Activity (%).
Where [2] appears, read: HBE assay, read-out: HBE Max activity (%).
[3] abbreviates: Table 10, read-out: HBE Max activity (%).
Where [4] appears, read: Table 11, read-out: HBE Max Activity (%).
The mark [5] stands for this setting: Table 12, at 10 μM, read-out: HBE Activity at 10 μM (%).
Where [6] appears, read: Table 11, at 10 μM, read-out: HBE Activity at 10 μM (%).

T1 sequence (P13569 with tags, fused parts or gaps DEL508-508): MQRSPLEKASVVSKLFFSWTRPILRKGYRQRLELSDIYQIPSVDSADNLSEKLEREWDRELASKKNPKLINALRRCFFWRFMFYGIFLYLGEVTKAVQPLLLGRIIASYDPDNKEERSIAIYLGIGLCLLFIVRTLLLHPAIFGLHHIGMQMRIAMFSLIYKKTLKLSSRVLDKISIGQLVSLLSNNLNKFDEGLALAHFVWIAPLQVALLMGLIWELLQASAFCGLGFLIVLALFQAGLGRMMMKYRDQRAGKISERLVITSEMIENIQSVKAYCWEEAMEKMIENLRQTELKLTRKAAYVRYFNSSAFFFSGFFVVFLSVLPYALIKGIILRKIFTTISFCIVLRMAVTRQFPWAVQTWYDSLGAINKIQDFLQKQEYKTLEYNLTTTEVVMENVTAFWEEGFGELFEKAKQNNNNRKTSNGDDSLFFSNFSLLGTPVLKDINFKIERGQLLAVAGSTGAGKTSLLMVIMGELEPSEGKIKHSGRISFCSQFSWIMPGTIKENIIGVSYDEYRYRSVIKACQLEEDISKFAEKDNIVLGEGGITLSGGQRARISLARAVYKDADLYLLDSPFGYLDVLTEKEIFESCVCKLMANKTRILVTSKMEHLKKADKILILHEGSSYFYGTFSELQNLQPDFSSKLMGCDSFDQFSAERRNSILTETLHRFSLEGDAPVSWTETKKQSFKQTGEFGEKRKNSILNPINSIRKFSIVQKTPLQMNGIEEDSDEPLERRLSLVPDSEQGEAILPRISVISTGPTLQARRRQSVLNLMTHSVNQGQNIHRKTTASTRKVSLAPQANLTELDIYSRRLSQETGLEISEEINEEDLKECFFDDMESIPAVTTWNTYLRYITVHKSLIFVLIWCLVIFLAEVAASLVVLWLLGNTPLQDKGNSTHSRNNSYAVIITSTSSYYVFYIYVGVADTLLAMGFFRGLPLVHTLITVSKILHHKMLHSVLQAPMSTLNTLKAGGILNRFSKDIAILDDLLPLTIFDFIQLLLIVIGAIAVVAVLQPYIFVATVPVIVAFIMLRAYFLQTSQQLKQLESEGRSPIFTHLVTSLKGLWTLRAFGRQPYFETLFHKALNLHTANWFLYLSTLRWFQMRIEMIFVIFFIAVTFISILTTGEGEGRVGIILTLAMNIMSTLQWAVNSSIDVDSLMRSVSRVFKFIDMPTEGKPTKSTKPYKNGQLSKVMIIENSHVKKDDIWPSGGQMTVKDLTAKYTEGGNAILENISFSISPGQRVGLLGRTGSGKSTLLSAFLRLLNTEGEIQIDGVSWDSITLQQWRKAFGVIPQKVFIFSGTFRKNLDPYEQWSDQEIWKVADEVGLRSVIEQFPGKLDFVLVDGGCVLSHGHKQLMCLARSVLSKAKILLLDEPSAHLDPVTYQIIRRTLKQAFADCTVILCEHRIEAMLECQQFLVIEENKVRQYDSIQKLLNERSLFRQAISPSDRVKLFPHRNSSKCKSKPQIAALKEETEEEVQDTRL

`Cc1cccc(C)c1-c1cc2nc(n1)NS(=O)(=O)c1cccc(c1)C(=O)N(Cc1nccc(NC(C)C)c1F)[C@H](CC(C)(C)C)CO2` [Compound 1132]: the EC50 (Table 13) was under 1 µM. Further, the Emax under setting [1] is over 60%.

`COCC1CCC(C)(C)N1c1cncc(CN2C(=O)c3cccc(c3)S(=O)(=O)Nc3nc(cc(-c4c(C)cccc4C)n3)OC[C@H]2CC(C)(C)C)n1` (stereo in doubt) [Compound 1480]: the half-maximal effective concentration (EC50) (HBE assay) was under 1 µM. The Emax under setting [2] is over 60%.

In the case of `Cc1cccc(C)c1-c1cc2nc(n1)NS(=O)(=O)c1cccc(c1)C(=O)N(Cc1ccccc1-c1cn[nH]c1)[C@H](CC(C)(C)C)CO2` [Compound 147, (11R)-6-(2,6-dimethylphenyl)-11-(2,2-dimethylpropyl)-12-{[2-(1H-pyrazol-4-yl)phenyl]methyl}-9-oxa-2λ^6-thia-3,5,12,19-tetraazatricyclo[12.3.1.14,8]nonadeca-1(17),4,6,8(19),14(18),15-hexaene-2,2,13-trione], under “Table 10”, the EC50 was under 1 µM. Besides, under setting [3], the Emax was over 60%.

In the case of `COC1CCN(c2cccc(CN3C(=O)c4cccc(c4)S(=O)(=O)Nc4nc(cc(-c5c(C)cccc5C)n4)OC[C@H]3CC(C)(C)C)n2)CC1` [Compound 722], the EC50 (Table 11) was under 1 µM. Moreover, under setting [4], the Emax was over 60%.

`Cc1cccc(C)c1-c1cc2nc(n1)NS(=O)(=O)c1cccc(c1)C(=O)N(Cc1ccc(-c3c(C)n[nH]c3C)cc1)[C@H](CC(C)(C)C)CO2` [Compound 143, (11R)-12-{[4-(3,5-dimethyl-1H-pyrazol-4-yl)phenyl]methyl}-6-(2,6-dimethylphenyl)-11-(2,2-dimethylpropyl)-9-oxa-2λ^6-thia-3,5,12,19-tetraazatricyclo[12.3.1.14,8]nonadeca-1(17),4,6,8(19),14(18),15-hexaene-2,2,13-trione]: the EC50 (Table 10) was under 1 µM. Also, under setting [3], the Emax was over 60%.

Take `Cc1cccc(C)c1-c1cc2cc(n1)NS(=O)(=O)c1cccc(c1)C(=O)N(Cc1cccc(N3CCC[C@H]3C)n1)[C@H](CC(C)(C)C)CO2` [Compound 526]: the EC50 (Table 12) is under 1 µM. Besides, for the setting “Table 12, read-out: HBE Max Activity (%)”, the Emax is over 60%.

As for `Cc1cccc(C)c1-c1cc2nc(n1)NS(=O)(=O)c1cccc(c1)C(=O)N(Cc1ncc(C(C)(C)C)s1)[C@H](CC(C)(C)C)CO2` [Compound 174], the activation at 10 µM under setting [5] is over 600%.

On to `Cc1cccc(O)c1-c1cc2nc(n1)NS(=O)(=O)c1cccc(c1)C(=O)N(Cc1ccc(N3CCOCC3)cn1)[C@H](CC(C)(C)C)CO2` [Compound 333], for which, under setting [6], the activation at 10 µM was in the range of 30 to 60%.

Turning to `Cc1cccc(C)c1-c1cc2nc(n1)NS(=O)(=O)c1cccc(c1)C(=O)N(Cc1nccc(C(C)C(C)C)n1)[C@H](CC(C)(C)C)CO2` (stereo partly drawn) [Compound 538], the activation at 10 µM (Table 13, at 10 μM, read-out: HBE Activity at 10 μM (%)) is over 600%.

For `Cc1cccc(C)c1-c1cc2nc(n1)NS(=O)(=O)c1cccc(c1)C(=O)N(Cc1ccc([C@@H](O)CO)cn1)[C@H](CC(C)(C)C)CO2` [Compound 1151], for the setting “Table 13”, the EC50 fell in the range of 1 to 3 µM. Moreover, the Emax under setting [1] was over 60%.

Take `Cc1cccc(C)c1-c1cc2nc(n1)NS(=O)(=O)c1cccc(c1)C(=O)N(Cc1cccc(N3CCCCC3)n1)[C@H](CC(C)(C)C)CO2` [Compound 489]: the EC50 (Table 10) is under 1 µM. Further, under setting [3], the Emax is over 60%.

Take `Cc1cccc(C)c1-c1cc2nc(n1)NS(=O)(=O)c1cccc(c1)C(=O)N(CC1CCCOC1)[C@H](CC(C)(C)C)CO2` (stereo partly drawn) [Compound 819]: the EC50 (Table 11) was under 1 µM.

Take `Cc1cccc(C)c1-c1cc2nc(n1)NS(=O)(=O)c1cccc(c1)C(=O)N(Cc1ccc(-c3c[nH]nc3C3CC3)cn1)[C@H](CC(C)(C)C)CO2` [Compound 297]: for the setting “Table 10”, the EC50 was under 1 µM. Moreover, the Emax under setting [3] is over 60%.

Take `Cc1ccccc1CNC(=O)CN1C(=O)c2cccc(c2)S(=O)(=O)Nc2nc(cc(-c3c(C)cccc3C)n2)OC[C@H]1CC(C)(C)C` [Compound 217]: the activation at 10 µM under setting [5] was over 600%.

With `COCCN(c1cccc(CN2C(=O)c3cccc(c3)S(=O)(=O)Nc3nc(cc(-c4c(C)cccc4C)n3)OC[C@H]2CC(C)(C)F)n1)C(C)C` [Compound 1508], the activation at 10 µM (HBE assay, 10 μM, read-out: HBE Activity at 10 μM (%)) is over 60%.

Consider `Cc1cccc(C)c1-c1cc2nc(n1)NS(=O)(=O)c1cccc(c1)C(=O)N(CC1CCC(C)(C)OC1)[C@H](CC(C)(C)C)CO2` (single isomer, unassigned) [Compound 31], for which, under setting [6], the activation at 10 µM is over 60%.

Turning to `COCCN(C)c1cnc(CN2C(=O)c3cccc(c3)S(=O)(=O)Nc3nc(cc(-c4c(C)cccc4C)n3)OC[C@H]2CC(C)(C)C)cn1` [Compound 900], the EC50 (Table 11) was in the range of 1 to 3 µM. Besides, the Emax under setting [4] is over 60%.

With `Cc1cccc(C)c1-c1cc2nc(n1)NS(=O)(=O)c1cccc(c1)C(=O)N(CCc1ccc(N3CCC(C)(C)C3)nc1)[C@H](CC(C)(C)C)CO2` [Compound 473], the half-maximal effective concentration (EC50) (Table 11) is under 1 µM. In addition, the Emax under setting [4] is over 60%.

For the compound `Cc1cccc(C)c1-c1cc2nc(n1)NS(=O)(=O)c1cccc(c1)C(=O)N(Cc1ccc(C3CCCCC3)c(C)n1)[C@H](CC(C)(C)C)CO2` [Compound 467], under “Table 10, at 10 μM, read-out: HBE activity at 10 (μM) (%)”, the activation at 10 µM is over 60%.

With `CC(C)=C(C)c1ccnc(CN2C(=O)c3cccc(c3)S(=O)(=O)Nc3nc(cc(-c4c(C)cccc4C)n3)OC[C@H]2CC(C)(C)C)n1` [Compound 555], under setting [5], the activation at 10 µM is over 600%.

For the compound `Cc1cccc(C)c1-c1cc2nc(n1)NS(=O)(=O)c1cccc(c1)C(=O)N(Cc1nccc(N(C)C(C)C)n1)[C@H](CC(C)(C)C)CO2` [Compound 123, (11R)-6-(2,6-Dimethylphenyl)-11-(2,2-dimethylpropyl)-12-[[4-[isopropyl(methyl)amino]pyrimidin-2-yl]methyl]-2,2-dioxo-9-oxa-2λ^6-thia-3,5,12,19-tetrazatricyclo[12.3.1.14,8]nonadeca-1(18),4(19),5,7,14,16-hexaen-13-one], the EC50 (Table 11) is under 1 µM. Also, the Emax under setting [4] was over 60%.

Regarding `Cc1cccc(C)c1-c1cc2nc(n1)NS(=O)(=O)c1cccc(c1)C(=O)N(CC(=O)N(C)CCN(C)C)[C@H](CC(C)(C)C)CO2` [Compound 224], the activation at 10 µM under setting [5] is over 600%.

`Cc1cccc(C)c1-c1cc2nc(n1)NS(=O)(=O)c1cccc(c1)C(=O)N(Cc1cccc(N3CCC[C@@H]3CC(C)C)n1)[C@H](CC(C)(C)C)CO2` (stereo in doubt) [Compound 1429]: the concentration for a half-maximal effect (EC50) (HBE assay) is under 1 µM.

Turning to `CCN(c1ccnc(CN2C(=O)c3cccc(c3)S(=O)(=O)Nc3nc(cc(-c4c(C)cccc4C)n3)OC[C@H]2CC(C)(C)C)n1)C(C)C` [Compound 602], the EC50 (Table 11) is under 1 µM. Further, under setting [4], the Emax is over 60%.

Consider `Cc1cccc(C(C)C)c1-c1cc2nc(n1)NS(=O)(=O)c1cccc(c1)C(=O)N(Cc1ccc(N3CCOCC3)cn1)[C@H](CC(C)(C)C)CO2` [Compound 821], for which, under setting [6], the activation at 10 µM was over 60%. Moreover, the EC50 (Table 11) is under 1 µM. Besides, under setting [4], the Emax was over 60%.

With `Cc1cccc(C)c1-c1cc2nc(n1)NS(=O)(=O)c1cccc(c1)C(=O)N(Cc1ncc(N3CC[C@@](C)(F)C3)cn1)[C@H](CC(C)(C)C)CO2` [Compound 1441], the concentration giving a half-maximal response (EC50) (HBE assay) was under 1 µM. Under setting [2], the Emax was over 60%.
